≈ marks a conversion by molar mass, not a printed value. Where “and” joins values, the source holds several entries; their conditions need not be identical. Equal entries are not always repeated. Where two headings read alike, the source gives them in different places.
What was measured:
MRSA Strain 5749 [1] = test: MIC, broth microdilution; type: cell-based; conditions: Staphylococcus aureus, clinical strain, read-out: MIC MRSA Strain 5749
Protocol: (§1) The antibacterial activity of the compounds was evaluated using the broth microdilution method in 96‐well microplates according to the Clinical and Laboratory Standards Institute protocol (CLSI, 2017). First, synthetic compounds were diluted in Mueller Hinton broth (MHB; Oxoid, Thermo Scientific, UK) to concentrations ranging from 20 to 2.5 μg/ml. The same volume of a bacterial suspension containing 10^5 CFU/ml was added to each of the previous solutions, resulting in final compound concentrations from 10 to 1.25 μg/ml. […] All conditions were tested in triplicate and the results shown are representative of three independent assays.

MRSA Strain 5912 [2] = test: MIC, broth microdilution; type: cell-based; conditions: Staphylococcus aureus, clinical strain, read-out: MIC MRSA Strain 5912
Protocol: as §1

MRSA Strain 6154 [3] = test: MIC, broth microdilution; type: cell-based; conditions: Staphylococcus aureus, clinical strain, read-out: MIC MRSA Strain 6154
Protocol: as §1

MRSA Strain 6613 [4] = test: MIC, broth microdilution; type: cell-based; conditions: Staphylococcus aureus, clinical strain, read-out: MIC MRSA Strain 6613
Protocol: as §1

[5] = system: Staphylococcus aureus ATCC 29212; test: MIC, broth microdilution; type: cell-based; conditions: for MIC: Staphylococcus aureus, ATCC29212; for Antibacterial activity in initial screening, S. aureus: concentration of 10 μg/ml
Protocol: as §1

[6] = system: Streptococcus pyogenes ATCC 19615; test: MIC, broth microdilution; type: cell-based; conditions: for MIC: Streptococcus pyogenes, ATCC19615; for Antibacterial activity in initial screening, S. pyogenes: concentration of 10 μg/ml
Protocol: as §1

MRSA Strain 5749 [7] = test: MBC, plating of wells without growth; type: cell-based; conditions: Staphylococcus aureus
Protocol: (§2) After incubation at 35°C for 24 hr, the colonies were counted and the percentage of inhibition was calculated. MBC is defined as the lowest compound's concentration that inhibits at least 99.9% of the bacterial cell count compared to nontreated viability control (Clinical and Laboratory Standards Institute, 1999).

MRSA Strain 5912 [8] = test: MBC, plating of wells without growth; type: cell-based; conditions: Staphylococcus aureus
Protocol: as §2

MRSA Strain 6154 [9] = test: MBC, plating of wells without growth; type: cell-based; conditions: Staphylococcus aureus
Protocol: as §2

MRSA Strain 6613 [10] = test: MBC, plating of wells without growth; type: cell-based; conditions: Staphylococcus aureus
Protocol: as §2

S. aureus ATCC 29212 = test: MBC, plating of wells without growth; type: cell-based; conditions: Staphylococcus aureus, ATCC29212; at least 99.9% inhibition of cell count
Protocol: as §2

S. pyogenes ATCC 19615 = test: MBC, plating of wells without growth; type: cell-based; conditions: Streptococcus pyogenes, ATCC19615; at least 99.9% inhibition of cell count
Protocol: as §2

[11] = Cytotoxicity, MTT reduction assay; type: cell-based; conditions: African green monkey, 48 hr
Protocol: (§3) The cytotoxicity of active compounds to mammalian cells was assessed using the MTT reduction assay (Mosmann, 1983). Vero and BSC‐40 cells were seeded in 96‐well plates (8 × 10^4 cells per well) and incubated at 37°C and 5% CO2 atmosphere. After 24 hr of incubation, 200 μL of fresh medium containing a serial dilution of compounds (10–1.25 μg/ml) were added to the plates. After 48 hr of incubation in the same conditions, 100 μL of MTT solution in MEM or DMEM (5 mg/ml) was added to each well and incubated for 3 hr at 37°C and 5% CO2 atmosphere. The medium was removed and 100 μL of DMSO was used to solubilize formazan crystals. Absorbance at 570 nm of each well was read using a spectrophotometer (VersaMax, Molecular Devices).

MRSA strains [12] = test: MIC, broth microdilution, MRSA strains taken together; type: cell-based; conditions: Staphylococcus aureus; over the six MRSA strains (CPD18: four out of six); read-out: MIC against MRSA strains
Protocol: as §1

MRSA strains [13] = test: MBC, MRSA strains taken together; type: cell-based, Staphylococcus aureus; conditions: concentrations tested (up to 10 μg/ml)
Protocol: as §2

[14] = system: Gram‐positive bacteria (E. faecalis, S. aureus and S. pyogenes); test: MIC, broth microdilution, Gram‐positive bacteria taken together; type: cell-based; conditions: Staphylococcus aureus; over different bacterial strains, including MRSA where stated; read-out: MIC against Gram‐positive bacteria, summary
Protocol: as §1

[15] = system: Enterococcus faecalis ATCC 29213; test: MIC, broth microdilution; type: cell-based; conditions: for MIC: Enterococcus faecalis, ATCC29213; for Antibacterial activity in initial screening, E. faecalis: concentration of 10 μg/ml
Protocol: as §1

MRSA ATCC 43300 [16] = test: MIC, broth microdilution; type: cell-based; conditions: Staphylococcus aureus; — = no activity up to 10 μg/ml; read-out: MIC MRSA ATCC 43300
Protocol: as §1

MRSA Strain 6100 [17] = test: MIC, broth microdilution; type: cell-based; conditions: Staphylococcus aureus, clinical strain, — = no activity up to 10 μg/ml, read-out: MIC MRSA Strain 6100
Protocol: as §1

E. faecalis ATCC 29213 = test: MBC, plating of wells without growth; type: cell-based; conditions: Enterococcus faecalis, ATCC29213; at least 99.9% inhibition of cell count
Protocol: as §2

MRSA ATCC 43300 [18] = test: MBC, plating of wells without growth; type: cell-based; conditions: Staphylococcus aureus
Protocol: as §2

MRSA Strain 6100 [19] = test: MBC, plating of wells without growth; type: cell-based; conditions: Staphylococcus aureus
Protocol: as §2

BSC‐40 cells = test: Cytotoxicity, MTT reduction assay; type: cell-based; conditions: BSC‐40; bacterial strain not stated
Protocol: as §3

Vero cells = test: Cytotoxicity, MTT reduction assay; type: cell-based; conditions: bacterial strain not stated
Protocol: as §3

[20] = 24 hr, 35°C, read-out: MIC Staphylococcus aureus ATCC 29212
[21] = read-out: MIC against S. aureus
[22] = 24 hr, 35°C, read-out: MIC Streptococcus pyogenes ATCC 19615
[23] = read-out: MIC against S. pyogenes
[24] = BSC-40 cells, BSC‐40, MTT, read-out: CC50
[25] = BSC-40 cells, BSC‐40, MTT, read-out: CC50 ± SD
[26] = Vero cells, MTT, read-out: CC50
[27] = Vero cells, MTT, read-out: CC50 ± SD
[28] = 24 hr, 35°C, — = no activity up to 10 μg/ml, read-out: MIC Enterococcus faecalis ATCC 29213
[29] = read-out: MIC against E. faecalis

| Structure (SMILES) | MIC (MRSA Strain 5749 [1]) [µM] | MIC (MRSA Strain 5912 [2]) [µM] | MIC (MRSA Strain 6154 [3]) [µM] | MIC (MRSA Strain 6613 [4]) [µM] | MIC [5, 20] [µM] | MIC [5, 21] [µg/mL] | Antibacterial activity in initial screening, S. aureus [5] | MIC [6, 22] [µM] | MIC [6, 23] [µg/mL] | Antibacterial activity in initial screening, S. pyogenes [6] | MBC (MRSA Strain 5749 [7]) [µM] | MBC (MRSA Strain 5912 [8]) [µM] | MBC (MRSA Strain 6154 [9]) [µM] | MBC (MRSA Strain 6613 [10]) [µM] | MBC (S. aureus ATCC 29212) [µM] | MBC (S. pyogenes ATCC 19615) [µM] | CC50 at 48 h [11, 25] [µM] | CC50 at 48 h [11, 26] [µg/mL] | CC50 at 48 h [11, 27] [µM] | MIC (MRSA strains [12]) | also measured |
| --- | --- | --- | --- | --- | --- | --- | --- | --- | --- | --- | --- | --- | --- | --- | --- | --- | --- | --- | --- | --- | --- |
| NC(COc1ccc(Cl)cc1)COc1ccc(Cl)cc1 [CPD18] | 28.7 (≈ 8.95 µg/mL) | 28.7 (≈ 8.95 µg/mL) | 28.7 (≈ 8.95 µg/mL) | 28.7 (≈ 8.95 µg/mL) | 28.7 | 10 | showed activity | 28.7 | 10 | showed activity | > 28.7 | > 28.7 | > 28.7 | > 28.7 | > 28.7 | > 28.7 | 16.4 ± 0.52 | 5.99 ± 0.09 | 17.2 ± 0.26 | 10 µg/mL and 28.7 µM | CC50 at 48 h [11, 24]: 5.73 ± 0.18 µg/mL; Bactericidal activity against MRSA strains (MRSA strains [13]): no bactericidal activity was observed; MIC [14]: 10 µg/mL and 28.7 µM |
| NC(COc1cccc2ccccc12)COc1cccc2ccccc12 [CPD20] | 6.58 (≈ 2.26 µg/mL) | 6.58 (≈ 2.26 µg/mL) | 6.58 (≈ 2.26 µg/mL) | 6.58 (≈ 2.26 µg/mL) | 6.58 | 2.5 | inhibited the growth | 6.58 | 2.5 | inhibited the growth | 6.58 (≈ 2.26 µg/mL) | 6.58 (≈ 2.26 µg/mL) | 26.3 (≈ 9.04 µg/mL) | 6.58 (≈ 2.26 µg/mL) | 26.3 (≈ 9.04 µg/mL) | 6.58 (≈ 2.26 µg/mL) | 6.58 ± 1.97 | 3.79 ± 0.6 | 9.98 ± 1.58 | 2.5 µg/mL and 6.58 µM | MIC [15, 28]: 13.2 µM; MIC [15, 29]: 5 µg/mL; Antibacterial activity in initial screening, E. faecalis [15]: inhibited the growth; MIC (MRSA ATCC 43300 [16]): 6.58 µM (≈ 2.26 µg/mL); MIC (MRSA Strain 6100 [17]): 6.58 µM (≈ 2.26 µg/mL); MBC (E. faecalis ATCC 29213): 26.3 µM (≈ 9.04 µg/mL); MBC (MRSA ATCC 43300 [18]): 13.2 µM (≈ 4.52 µg/mL); MBC (MRSA Strain 6100 [19]): 6.58 µM (≈ 2.26 µg/mL); CC50 at 48 h [11, 24]: 2.5 ± 0.75 µg/mL; MIC [14]: 2.5 µg/mL to 5 µg/mL and 6.58 µM to 13.2 µM |
| Cl.NC(COc1ccc(Cl)c(Cl)c1)COc1ccc(Cl)c(Cl)c1 [CPD22, 1,3‐Bis(3,4‐dichlorophenoxy)propan‐2‐aminium chloride] | 5.99 | 5.99 | 5.99 | 12 | 12 | 5 | inhibited the growth | 5.99 | 2.5 | inhibited the growth | 5.99 | 5.99 | > 23.9 | 12 | 12 | 23.9 | 10.6 ± 3.16 | 5.47 ± 1.89 | 13.1 ± 4.53 | 2.5 µg/mL to 5 µg/mL and 5.99 µM to 12 µM | MIC [15, 28]: 12 µM; MIC [15, 29]: 5 µg/mL; Antibacterial activity in initial screening, E. faecalis [15]: inhibited the growth; MIC (MRSA ATCC 43300 [16]): 12 µM; MIC (MRSA Strain 6100 [17]): 5.99 µM; MBC (E. faecalis ATCC 29213): > 23.9 µM; MBC (MRSA ATCC 43300 [18]): 12 µM; MBC (MRSA Strain 6100 [19]): 23.9 µM; Selective Index (SI), higher value (BSC‐40 cells): 1.77; Selective Index (SI), higher value (Vero cells): 2.19; MIC [14]: 2.5 µg/mL to 5 µg/mL and 5.99 µM to 12 µM; melting point: 224.1 to 225.6 °C |

From paper PMC6855212, “Antibacterial activity of synthetic 1,3‐bis(aryloxy)propan‐2‐amines against Gram‐positive bacteria” (MicrobiologyOpen, 2019)
